Assay [1] deals with T1, Tyrosine-protein phosphatase non-receptor type 1 (Homo sapiens, UniProt P18031).
T1 sequence (P18031 whole entry): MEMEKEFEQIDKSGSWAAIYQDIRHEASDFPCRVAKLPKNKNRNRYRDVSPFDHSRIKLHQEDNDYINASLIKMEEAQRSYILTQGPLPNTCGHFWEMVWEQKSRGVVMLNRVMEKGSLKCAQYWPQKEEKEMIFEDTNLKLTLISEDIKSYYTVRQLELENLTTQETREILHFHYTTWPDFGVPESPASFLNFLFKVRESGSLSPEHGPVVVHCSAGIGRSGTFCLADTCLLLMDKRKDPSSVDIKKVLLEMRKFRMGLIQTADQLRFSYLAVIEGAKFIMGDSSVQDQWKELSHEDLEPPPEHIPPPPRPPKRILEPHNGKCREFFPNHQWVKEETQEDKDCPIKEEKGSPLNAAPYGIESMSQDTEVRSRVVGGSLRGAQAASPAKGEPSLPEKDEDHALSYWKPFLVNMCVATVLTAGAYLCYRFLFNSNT
The experiment in a line: Inhibitory activity against Protein-tyrosine phosphatase 1B (PTP 1B) was determined.

The target of assay [2] is Tyrosine-protein phosphatase non-receptor type 2 (Homo sapiens, UniProt P17706). Description: Inhibitory constant against T cell protein tyrosine phosphatase. Type of assay: single protein.
Chain of Tyrosine-protein phosphatase non-receptor type 2 (P17706 whole entry, looked up): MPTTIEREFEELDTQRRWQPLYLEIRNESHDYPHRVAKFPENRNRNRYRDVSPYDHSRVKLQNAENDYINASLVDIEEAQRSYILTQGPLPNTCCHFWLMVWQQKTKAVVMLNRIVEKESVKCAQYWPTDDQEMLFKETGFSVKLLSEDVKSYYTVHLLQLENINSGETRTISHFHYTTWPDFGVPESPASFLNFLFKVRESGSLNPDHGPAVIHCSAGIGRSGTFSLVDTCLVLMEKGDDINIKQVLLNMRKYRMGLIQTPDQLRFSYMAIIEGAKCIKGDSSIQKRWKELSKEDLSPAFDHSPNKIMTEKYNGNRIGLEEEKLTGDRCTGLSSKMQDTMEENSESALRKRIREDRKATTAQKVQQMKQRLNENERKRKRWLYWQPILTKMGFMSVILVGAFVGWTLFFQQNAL
Assay [3] concerns the target T1, Tyrosine-protein phosphatase non-receptor type 1. The experiment in a line: Protein-tyrosine phosphatase 1B (PTP 1B) site 2 Ligands were identified using [13C]-labeled protein and their Dissociation Constants were determined.
The target of assay [4] is T2, M-phase inducer phosphatase 3 (Homo sapiens, UniProt P30307).
T2 sequence (P30307 whole entry): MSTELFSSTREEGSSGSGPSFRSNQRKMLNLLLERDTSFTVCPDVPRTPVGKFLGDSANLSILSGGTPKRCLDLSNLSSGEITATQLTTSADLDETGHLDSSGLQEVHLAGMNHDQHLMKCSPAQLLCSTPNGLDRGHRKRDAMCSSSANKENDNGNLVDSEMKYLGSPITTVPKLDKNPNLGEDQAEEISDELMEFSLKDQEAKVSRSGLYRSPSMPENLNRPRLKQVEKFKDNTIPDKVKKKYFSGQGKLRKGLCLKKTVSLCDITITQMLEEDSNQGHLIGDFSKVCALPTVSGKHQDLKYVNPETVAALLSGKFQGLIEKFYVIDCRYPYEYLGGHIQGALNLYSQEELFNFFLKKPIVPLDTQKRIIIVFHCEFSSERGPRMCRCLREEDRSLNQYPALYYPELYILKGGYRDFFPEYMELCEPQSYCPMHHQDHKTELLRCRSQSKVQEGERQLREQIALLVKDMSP
Description: Inhibitory activity against cell division cycle 25 degree C (Cdc25 C) was determined.

Assay [5] addresses Protein phosphatase 3 catalytic subunit alpha (Homo sapiens, UniProt Q08209). The experiment in a line: Inhibitory activity against (calcineurin) was determined.
Assay [6] can be described thus: Inhibitory activity against Leukocyte antigen related Tyrosine Phosphatase (Receptor linked protein tyrosine phosphatase LAR) was determined.
In assay [7] the target is T3, Receptor-type tyrosine-protein phosphatase C (Homo sapiens, UniProt P08575).
T3 sequence (P08575 whole entry): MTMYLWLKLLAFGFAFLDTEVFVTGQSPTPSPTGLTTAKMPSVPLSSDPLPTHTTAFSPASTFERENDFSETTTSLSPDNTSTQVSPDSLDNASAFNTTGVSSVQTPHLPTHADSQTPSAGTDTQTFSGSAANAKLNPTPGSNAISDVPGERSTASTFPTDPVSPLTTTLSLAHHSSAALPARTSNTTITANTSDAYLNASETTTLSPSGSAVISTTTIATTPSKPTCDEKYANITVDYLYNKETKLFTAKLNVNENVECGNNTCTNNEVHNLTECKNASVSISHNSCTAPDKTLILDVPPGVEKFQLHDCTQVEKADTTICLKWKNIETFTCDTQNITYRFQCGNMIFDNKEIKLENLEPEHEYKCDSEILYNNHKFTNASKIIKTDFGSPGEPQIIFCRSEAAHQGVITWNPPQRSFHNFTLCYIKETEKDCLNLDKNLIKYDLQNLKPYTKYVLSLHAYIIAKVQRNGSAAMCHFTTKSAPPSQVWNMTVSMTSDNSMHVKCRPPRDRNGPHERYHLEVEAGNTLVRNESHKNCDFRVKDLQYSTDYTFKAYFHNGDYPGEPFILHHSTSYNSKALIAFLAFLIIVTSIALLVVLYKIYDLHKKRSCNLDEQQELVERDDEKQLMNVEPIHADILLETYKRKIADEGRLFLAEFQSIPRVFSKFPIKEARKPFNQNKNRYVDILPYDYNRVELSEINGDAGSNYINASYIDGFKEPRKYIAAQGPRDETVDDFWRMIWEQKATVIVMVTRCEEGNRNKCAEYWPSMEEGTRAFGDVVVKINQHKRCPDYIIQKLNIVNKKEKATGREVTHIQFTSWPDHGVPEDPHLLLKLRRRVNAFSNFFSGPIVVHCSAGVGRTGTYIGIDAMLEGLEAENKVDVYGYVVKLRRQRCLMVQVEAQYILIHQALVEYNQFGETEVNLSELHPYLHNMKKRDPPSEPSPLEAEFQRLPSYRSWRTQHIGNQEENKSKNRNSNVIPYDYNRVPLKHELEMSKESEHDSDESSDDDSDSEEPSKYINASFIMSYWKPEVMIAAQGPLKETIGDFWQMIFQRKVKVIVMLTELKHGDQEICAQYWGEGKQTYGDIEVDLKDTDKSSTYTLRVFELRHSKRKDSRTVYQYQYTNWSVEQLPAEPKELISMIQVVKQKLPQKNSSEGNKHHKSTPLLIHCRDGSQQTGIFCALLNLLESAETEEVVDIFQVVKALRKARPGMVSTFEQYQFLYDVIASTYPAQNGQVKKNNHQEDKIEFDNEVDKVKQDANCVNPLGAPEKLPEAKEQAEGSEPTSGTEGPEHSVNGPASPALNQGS
Description: Inhibitory activity against CD45 tyrosine phosphatase was determined.

The target of assay [8] is T2, M-phase inducer phosphatase 3. The experiment in a line: Inhibitory activity against Cell division cycle 25 degree C was determined.

The record followed here is ChEMBL document CHEMBL1145861, “Selective protein tyrosine phosphatase 1B inhibitors: targeting the second phosphotyrosine binding site with non-carboxylic acid-containing ligands” (J Med Chem, 2003).

As for `CCc1cc(CC(NC(C)=O)C(=O)NCCCCOc2cccc(O)c2[N+](=O)[O-])ccc1N(C(=O)C(=O)O)c1ccccc1C(=O)O` (stereo not drawn), the Ki (as a rule, a measure of affinity in units of concentration, obtained from inhibition or displacement) was determined as 0.13 µM in assay [1] and 0.12 µM in assay [2].

Consider `N#Cc1cc(C(=O)O)c(O)c(Br)c1N`, for which the Kd (in general, the free concentration of one partner at which half of the binding sites on the other are occupied at equilibrium, for simple one-to-one binding) in assay [3] was 910 µM.

In the case of `CCc1cc(CC(NC(C)=O)C(=O)NCCCCOc2ccc(-c3ccccc3)c(O)c2C(=O)OC)ccc1N(C(=O)C(=O)O)c1ccccc1C(=O)O` (stereo not drawn), the Ki in assay [1] was determined as 0.56 µM; in assay [2], 0.84 µM.

Consider `CCc1cc(CC(NC(C)=O)C(=O)NCCCCOc2cccc(O)c2C(=O)OC)ccc1N(C(=O)C(=O)O)c1ccccc1C(=O)O` (stereo not drawn), for which the Ki in assay [2] was 0.065 µM.

Consider `CCc1cc(CC(NC(C)=O)C(=O)NCCCCOc2cc(Cl)cc(O)c2C(=O)OC)ccc1N(C(=O)C(=O)O)c1ccccc1C(=O)O` (stereo not drawn), for which the Ki is over 3 µM in assay [4]; over 3 µM in assay [5]; 0.04 µM in assay [1]; over 3 µM in assay [6]; 0.23 µM in assay [2]; over 3 µM in assay [7].

Regarding `CCc1cc(CC(NC(C)=O)C(=O)NCCCCOc2ccc(Br)c(O)c2C(=O)OC)ccc1N(C(=O)C(=O)O)c1ccccc1C(=O)O` (stereo not drawn), the Ki in assay [1] came to 0.39 µM; in assay [2] it was 2.6 µM.

On to `Nc1ccc(C(=O)O)c(O)c1` [AMINOSALICYLIC ACID], for which, in assay [3], the Kd turned out to be 1200 µM.

In the case of `NC(=O)[C@H](Cc1ccc(C(F)(F)P(=O)(O)O)cc1)NC(=O)[C@H](CC(=O)O)NC(=O)Cc1ccc(C(F)(F)P(=O)(O)O)cc1`, the Ki in assay [2] is 0.024 µM.

For `CCc1cc(CC(NC(C)=O)C(=O)NCCCCOc2cccc(O)c2C(=O)O)ccc1N(C(=O)C(=O)O)c1ccccc1C(=O)O` (stereo not drawn), the Ki stood at 0.042 µM in assay [1] and 0.073 µM in assay [2].

On to `CCc1cc(CC(NC(C)=O)C(=O)NCCCCOc2cccc(O)c2C(=O)NC)ccc1N(C(=O)C(=O)O)c1ccccc1C(=O)O` (stereo not drawn), for which the Ki in assay [1] is 0.37 µM; in assay [2], 0.83 µM.

On to `C=CCOC(=O)N[C@@H](Cc1ccc(N(C(=O)C(=O)O)c2ccccc2C(=O)O)cc1)C(=O)NCCCCOc1cccc(O)c1C(=O)OC`, for which the Ki in assay [8] was 178 µM; in assay [5], over 200 µM; in assay [6], 33 µM; in assay [2], 0.47 µM; in assay [7] it was over 200 µM.

`Cc1cc(C)c2nc(C(=O)O)ccc2c1O` came in with a Kd in assay [3] of 15600 µM.

For `CCc1cc(CC(NC(C)=O)C(=O)NCCCCOc2ccccc2C(=O)OC)ccc1N(C(=O)C(=O)O)c1ccccc1C(=O)O` (stereo not drawn), the Ki in assay [1] was 1.6 µM; in assay [2], 0.86 µM.
